Like-named read-outs stand apart in the source and are kept apart here.
Legend:
CDK12 [1] = biological target: T1, CDK12 (Homo sapiens (Human), UniProt Q9NYV4); assay: CDK12 plate based target engagement assay in Jurkat cells; assay type: cell-based
Description: Jurkat cells were treated with varying concentrations of the compound for 6 hours. The DMSO concentration was maintained at 0.1%. Cells were harvested and lysed. 200 μg of the lysate was incubated with 1 μM Bio-THZ531 in the presence of 1 mM DTT and incubated on a rocker at 4° C. overnight. 100 μL of this sample was added to pre-washed streptavidin coated plates and incubated at room temperature on a rocker for 2 hours. The plates were washed and incubated with CDK12 antibody for overnight at 4° C. Next day the plate was washed and incubated for 2 hours with HRP labelled anti rabbit secondary antibody. Bio-THZ531 bound CDK12 was determined using TMB substrate. […] Percentage CDK12 occupancy with the test compound was calculated over untreated control. Occupancy 50 was calculated by fitting the dose response data to sigmoidal curve fitting equation using GraphPad Prism software V5.

CDK12 [2] = biological target: T1, CDK12; assay: Biochemical assay for CDK12 (Kd determination), kinase-tagged phage/qPCR competition binding
Description: Kinase-tagged T7 phage strains were grown in parallel in 24-well blocks in an E. coli host derived from the BL21 strain. E. coli were grown to log-phase and infected with T7 phage from a frozen stock (multiplicity of infection=0.4) and incubated with shaking at 32° C. until lysis (90-150 minutes). The lysates were centrifuged (6,000×g) and filtered (0.2 μm) to remove cell debris. The remaining kinases were produced in HEK-293 cells and subsequently tagged with DNA for qPCR detection. […] The liganded beads were blocked with excess biotin and washed with blocking buffer (SeaBlock (Pierce), 1% BSA, 0.05% Tween 20, 1 mM DTT) to remove unbound ligand and to reduce non-specific phage binding. […] Test compounds were prepared as 40× stocks in 100% DMSO and directly diluted into the assay. All reactions were performed in polypropylene 384-well plates in a final volume of 0.02 ml. […] The kinase concentration in the eluates was measured by qPCR.
Target sequence in this assay (Q9NYV4 whole entry, species assumed): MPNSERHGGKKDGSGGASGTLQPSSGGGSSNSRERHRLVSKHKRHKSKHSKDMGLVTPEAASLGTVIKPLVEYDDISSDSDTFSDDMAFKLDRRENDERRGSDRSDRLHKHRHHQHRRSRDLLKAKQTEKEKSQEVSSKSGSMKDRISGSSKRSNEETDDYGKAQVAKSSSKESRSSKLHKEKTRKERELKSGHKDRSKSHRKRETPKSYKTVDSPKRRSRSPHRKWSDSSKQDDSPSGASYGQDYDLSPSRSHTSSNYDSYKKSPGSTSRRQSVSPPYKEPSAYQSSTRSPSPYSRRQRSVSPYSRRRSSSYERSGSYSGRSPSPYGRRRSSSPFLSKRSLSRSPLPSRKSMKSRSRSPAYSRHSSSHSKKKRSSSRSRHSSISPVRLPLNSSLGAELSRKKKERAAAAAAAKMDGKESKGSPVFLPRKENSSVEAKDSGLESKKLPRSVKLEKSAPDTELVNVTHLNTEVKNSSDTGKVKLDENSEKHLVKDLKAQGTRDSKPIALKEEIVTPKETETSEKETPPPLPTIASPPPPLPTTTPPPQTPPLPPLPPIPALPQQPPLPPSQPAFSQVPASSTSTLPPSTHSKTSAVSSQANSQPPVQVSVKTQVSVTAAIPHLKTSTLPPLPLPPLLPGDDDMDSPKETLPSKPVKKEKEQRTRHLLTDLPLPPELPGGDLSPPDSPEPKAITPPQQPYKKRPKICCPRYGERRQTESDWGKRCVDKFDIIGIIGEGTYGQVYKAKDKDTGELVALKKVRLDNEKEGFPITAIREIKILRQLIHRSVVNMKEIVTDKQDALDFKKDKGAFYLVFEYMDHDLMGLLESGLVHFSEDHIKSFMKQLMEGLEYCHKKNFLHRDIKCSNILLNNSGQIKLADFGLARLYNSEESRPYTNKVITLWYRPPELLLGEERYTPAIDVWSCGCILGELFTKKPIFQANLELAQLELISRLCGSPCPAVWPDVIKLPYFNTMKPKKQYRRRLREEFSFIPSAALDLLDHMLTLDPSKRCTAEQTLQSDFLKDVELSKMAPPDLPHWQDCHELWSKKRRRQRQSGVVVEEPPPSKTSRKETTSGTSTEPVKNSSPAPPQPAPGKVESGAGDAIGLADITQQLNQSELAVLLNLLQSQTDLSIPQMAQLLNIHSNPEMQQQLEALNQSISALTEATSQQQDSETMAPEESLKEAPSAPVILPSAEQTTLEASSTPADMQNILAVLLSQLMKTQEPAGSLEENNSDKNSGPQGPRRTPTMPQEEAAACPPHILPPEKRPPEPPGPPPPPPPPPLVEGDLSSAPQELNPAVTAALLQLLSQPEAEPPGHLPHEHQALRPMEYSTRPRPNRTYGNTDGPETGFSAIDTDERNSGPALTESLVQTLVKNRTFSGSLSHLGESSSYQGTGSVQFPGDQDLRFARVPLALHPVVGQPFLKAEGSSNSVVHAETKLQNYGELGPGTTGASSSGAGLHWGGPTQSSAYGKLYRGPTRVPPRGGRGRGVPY

CDK13 = CDK13 (Homo sapiens (Human), UniProt Q14004); assay: Biochemical assay for CDK13, LanthaScreen Eu Kinase Binding Assay; conditions: for IC50: kinase tracer 236 100 nM; for Ratio CDK7/CDK13: ratio of IC50
Text: Binding of an inhibitor to the kinase competes for binding with the tracer, resulting in a loss of FRET signal.

CDK12 [3] = biological target: T1, CDK12; assay: Biochemical assay for CDK12 (IC50 determination), LANCE TR-FRET; conditions: for IC50: ATP 100 μM, 60 min pre-incubation
Description: The inhibitory activity of the test compounds was assessed by the LANCE TR-FRET assay, which detects the ATP-dependent phosphorylation of an ULight-4E-BP1 (Thr37/Thr46) substrate peptide (100 nM) by CDK12 (30 nM). Briefly, the enzyme reaction was run in reaction buffer (25 mM HEPES (pH 7.5), 10 mM MgCl2, 0.01% BSA, 0.01% Triton x, 1 mM DTT). The assay was performed in 384-well plate format. The end concentration of the ATP substrate was 100 μM, and that of the ULight-4E-BP1 (Thr37/Thr46) substrate peptide was 100 nM, and of CDK12 was 30 nM. Pre-incubation of the compound and enzyme was performed for 60 min at room temperature. After 60 min incubation at room temperature, the reaction was terminated by the addition of 40 mM EDTA and 0.5 nM Eu-labeled anti-phospho-eIF4E-binding protein (Thr37/46) antibody in LANCE detection buffer. […] The readout was calculated as (acceptor counts/donor counts)×1000. The IC50 values were derived by fitting a sigmoidal dose-response curve to a plot of assay readout over inhibitor concentration.

CDK7 [4] = biological target: T2, CDK7 (Homo sapiens (Human), UniProt P50613); assay: Biochemical assay for CDK7, LANCE TR-FRET; conditions: read-out: CDK 7 IC50
Description: The inhibitory activity of the test compounds was assessed by the LANCE TR-FRET assay, which detects the ATP-dependent phosphorylation of an ULight-myelin basic protein (MBP) substrate peptide (100 nM) by CDK7 (10 nM). Briefly, the enzyme reaction was run in reaction buffer (20 mM HEPES (pH 7.5), 10 mM MgCl2, 0.01% Triton x, 100 μM Sodium Orthovanadate, 1 mM DTT). The assay was performed in 384-well plate. The end concentration of the ATP substrate was 1 mM/100 μM, and that of the ULight-MBP substrate peptide was 100 nM, and of CDK7 was 10 nM. Pre-incubation of the compound and enzyme was performed for 60 min at room temperature. After 60 min incubation at room temperature, the reaction was terminated by the addition of 40 mM EDTA and 1 nM Eu-labeled anti-phospho-MBP-binding protein antibody in the buffer. […] The readout was calculated as (acceptor counts/donor counts)×1000. The IC50 values were derived by fitting a sigmoidal dose-response curve to a plot of assay readout over inhibitor concentration.
Target sequence in this assay (P50613 whole entry, looked up, species assumed): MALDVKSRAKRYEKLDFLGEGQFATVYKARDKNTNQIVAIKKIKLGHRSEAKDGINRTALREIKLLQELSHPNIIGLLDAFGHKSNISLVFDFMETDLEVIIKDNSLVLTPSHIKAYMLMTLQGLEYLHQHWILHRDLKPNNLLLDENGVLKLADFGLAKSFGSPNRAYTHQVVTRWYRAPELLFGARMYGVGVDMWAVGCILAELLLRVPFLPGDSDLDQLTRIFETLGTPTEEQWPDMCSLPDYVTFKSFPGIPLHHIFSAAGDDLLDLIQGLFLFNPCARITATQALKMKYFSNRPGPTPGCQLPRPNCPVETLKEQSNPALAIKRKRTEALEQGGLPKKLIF
Target sequence in this assay (P51946 whole entry partner, looked up, species assumed): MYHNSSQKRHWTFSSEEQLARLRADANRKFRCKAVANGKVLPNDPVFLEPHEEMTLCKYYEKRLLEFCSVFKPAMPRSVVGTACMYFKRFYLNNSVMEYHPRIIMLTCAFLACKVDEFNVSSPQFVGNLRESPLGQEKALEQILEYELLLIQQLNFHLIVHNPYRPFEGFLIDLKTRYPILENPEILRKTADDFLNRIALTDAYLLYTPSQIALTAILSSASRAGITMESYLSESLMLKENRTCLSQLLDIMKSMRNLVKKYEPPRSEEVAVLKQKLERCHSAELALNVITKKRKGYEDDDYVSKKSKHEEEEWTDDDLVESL
Target sequence in this assay (P51948 whole entry partner, looked up, species assumed): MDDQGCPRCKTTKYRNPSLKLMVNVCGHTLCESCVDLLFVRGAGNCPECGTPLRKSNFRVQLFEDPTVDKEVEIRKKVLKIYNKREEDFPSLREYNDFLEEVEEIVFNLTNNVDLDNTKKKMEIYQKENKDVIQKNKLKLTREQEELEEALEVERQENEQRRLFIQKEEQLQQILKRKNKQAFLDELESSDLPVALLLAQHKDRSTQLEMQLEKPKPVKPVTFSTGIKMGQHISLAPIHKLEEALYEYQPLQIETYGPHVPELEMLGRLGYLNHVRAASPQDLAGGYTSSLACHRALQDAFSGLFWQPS

CDK7 [5] = biological target: T2, CDK7; assay: CDK7 target occupancy in Jurkat cells; assay type: cell-based
[6] = ATP 1 mM/100 μM, 60 min pre-incubation

CDK13, sequence (Q14004 whole entry, looked up, species assumed): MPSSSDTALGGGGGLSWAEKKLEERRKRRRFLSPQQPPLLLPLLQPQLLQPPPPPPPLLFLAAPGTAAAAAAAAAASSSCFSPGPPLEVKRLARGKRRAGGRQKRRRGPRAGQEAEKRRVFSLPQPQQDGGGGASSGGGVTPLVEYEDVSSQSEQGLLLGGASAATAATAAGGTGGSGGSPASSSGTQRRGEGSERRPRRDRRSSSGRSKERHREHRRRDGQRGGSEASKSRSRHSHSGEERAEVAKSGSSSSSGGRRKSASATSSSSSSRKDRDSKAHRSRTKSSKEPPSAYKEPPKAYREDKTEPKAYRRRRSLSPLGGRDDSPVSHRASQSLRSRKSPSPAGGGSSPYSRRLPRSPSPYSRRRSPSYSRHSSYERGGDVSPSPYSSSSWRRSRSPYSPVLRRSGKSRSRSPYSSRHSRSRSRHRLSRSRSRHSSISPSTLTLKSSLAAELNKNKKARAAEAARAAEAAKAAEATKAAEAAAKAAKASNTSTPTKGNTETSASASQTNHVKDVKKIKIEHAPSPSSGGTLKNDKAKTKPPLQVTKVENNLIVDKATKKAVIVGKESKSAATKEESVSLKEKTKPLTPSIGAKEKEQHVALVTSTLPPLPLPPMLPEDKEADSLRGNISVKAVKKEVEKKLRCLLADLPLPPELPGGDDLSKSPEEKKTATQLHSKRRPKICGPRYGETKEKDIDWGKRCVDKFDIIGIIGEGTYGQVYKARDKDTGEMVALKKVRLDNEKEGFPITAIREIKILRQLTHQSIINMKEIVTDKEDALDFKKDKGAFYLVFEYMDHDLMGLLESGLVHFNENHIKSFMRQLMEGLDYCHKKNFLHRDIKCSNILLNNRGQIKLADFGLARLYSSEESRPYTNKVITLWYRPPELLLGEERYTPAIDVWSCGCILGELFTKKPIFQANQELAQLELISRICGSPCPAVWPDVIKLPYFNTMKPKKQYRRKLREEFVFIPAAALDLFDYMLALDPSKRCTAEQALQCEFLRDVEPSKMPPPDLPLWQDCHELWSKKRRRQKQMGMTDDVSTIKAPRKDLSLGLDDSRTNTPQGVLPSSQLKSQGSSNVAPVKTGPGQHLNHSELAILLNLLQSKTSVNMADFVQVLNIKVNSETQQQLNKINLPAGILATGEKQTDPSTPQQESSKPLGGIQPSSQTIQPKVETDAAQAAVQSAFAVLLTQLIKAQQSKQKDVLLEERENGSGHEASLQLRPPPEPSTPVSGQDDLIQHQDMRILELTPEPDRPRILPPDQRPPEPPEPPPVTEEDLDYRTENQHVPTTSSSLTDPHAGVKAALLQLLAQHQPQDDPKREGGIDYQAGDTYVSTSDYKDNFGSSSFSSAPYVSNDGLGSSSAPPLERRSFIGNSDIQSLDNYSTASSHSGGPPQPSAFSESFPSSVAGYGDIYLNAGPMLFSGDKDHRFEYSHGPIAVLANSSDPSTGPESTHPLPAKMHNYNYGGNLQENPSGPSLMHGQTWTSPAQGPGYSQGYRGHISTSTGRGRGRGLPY
CDK13, sequence (O75909 whole entry partner, looked up, species assumed): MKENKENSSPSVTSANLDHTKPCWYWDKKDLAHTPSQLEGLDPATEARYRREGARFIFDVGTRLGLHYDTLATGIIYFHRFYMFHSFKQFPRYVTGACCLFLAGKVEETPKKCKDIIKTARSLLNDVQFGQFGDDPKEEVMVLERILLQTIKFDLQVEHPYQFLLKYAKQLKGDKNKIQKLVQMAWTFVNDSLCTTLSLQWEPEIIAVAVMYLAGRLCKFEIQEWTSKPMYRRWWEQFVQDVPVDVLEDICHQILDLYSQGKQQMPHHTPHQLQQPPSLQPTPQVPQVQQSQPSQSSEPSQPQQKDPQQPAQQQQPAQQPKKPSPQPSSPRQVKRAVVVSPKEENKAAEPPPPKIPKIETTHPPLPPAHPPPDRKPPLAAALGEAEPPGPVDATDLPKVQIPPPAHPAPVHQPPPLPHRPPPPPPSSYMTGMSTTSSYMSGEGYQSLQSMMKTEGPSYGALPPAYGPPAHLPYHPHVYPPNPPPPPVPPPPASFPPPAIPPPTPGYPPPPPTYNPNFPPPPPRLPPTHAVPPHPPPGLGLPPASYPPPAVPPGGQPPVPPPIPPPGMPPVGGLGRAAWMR

Row | Compound | CDK12 Target Occupancy (Tocc50) μM in Jurkat cells (CDK12 [1]; Jurkat cells, 6 hours) | Kd (CDK12 [2]) | IC50 (CDK13) | IC50 (CDK12 [3]) | Ratio CDK7/CDK13 (CDK13) | Ratio CDK7/CDK12 (CDK12 [3]) | IC50 (CDK7 [4]; [6]) | IC50 (CDK7 [4]) | Ratio CDK7/CDK12 (CDK12 [1]) | Jurkat Cells, CDK12 Target Occ50 (CDK12 [1]; Jurkat cells) | binding affinity towards CDK12 in comparison to CDK7 (CDK12 [1]; Jurkat cells target occupancy) | Jurkat Cells, CDK7 Target Occ50 (CDK7 [5]) | CDK12 Target Occupancy (Tocc50) μM in Jurkat cells (CDK12 [1])
1 | C=CC(=O)N1CCC=C(c2ccc(C(C)C(=O)Nc3cc(C4CC4)[nH]n3)cn2)C1 (single isomer, unassigned) [Compound 37, 2-(1′-acryloyl-1′,2′,5′,6′-tetrahydro-[2,3′-bipyridin]-5-yl)-N-(5-cyclopropyl-1H-pyrazol-3-yl)propanamide] | 0.012 µM | < 25 nM | 3 nM | 29 nM |  |  |  |  |  |  |  |  | 
2 | C=CC(=O)N1CC=C(c2ccc(C(C)C(=O)Nc3cc(C4CC4)[nH]n3)cn2)CC1 (single isomer, unassigned) [Compound 6, 2-(1′-acryloyl-1′,2′,3′,6′-tetrahydro-[2,4′-bipyridin]-5-yl)-N-(5-cyclopropyl-1H-pyrazol-3-yl)propanamide] | 0.012 µM | < 25 nM | 6 nM | 40 nM | 216.66 | 32.5 | 1300 nM |  |  |  |  |  | 
3 | C=CC(=O)N1CCN(c2ccc(C(C)C(=O)Nc3cc(C4CC4)[nH]n3)cc2)CC1 (centres unmarked) [Compound 17, 2-(4-(4-acryloylpiperazin-1-yl)phenyl)-N-(5-cyclopropyl-1H-pyrazol-3-yl)propanamide] | 0.030 µM | > 100 nM | 81 nM | 590 nM | 98.27 | 13.49 |  | 7960 nM |  |  |  |  | 
4 | C=CC(=O)N1CC=C(c2ccc(C(C)C(=O)Nc3cc(C4CC4)[nH]n3)cc2F)CC1 (centres unmarked) [Compound 44, 2-(4-(1-acryloyl-1,2,3,6-tetrahydropyridin-4-yl)-3-fluorophenyl)-N-(5-cyclopropyl-1H-pyrazol-3-yl)propanamide] | 0.009 µM |  | 5.8 nM | 9 nM | 151.72 | 97.77 | 880 nM |  |  |  |  |  | 
5 | N#CN1CCC=C(c2ccc(CC(=O)Nc3cc(C4CC4)[nH]n3)cn2)C1 [Compound 61, 2-(1′-cyano-1′,2′,5′,6′-tetrahydro-[2,3′-bipyridin]-5-yl)-N-(5-cyclopropyl-1H-pyrazol-3-yl)acetamide] | 0.007 µM |  |  | 6 nM |  |  |  |  |  |  |  |  | 
6 | C#CC(=O)N1CC=C(c2ccc(CC(=O)Nc3cc(C4CC4)[nH]n3)cn2)C1 [Compound 60, N-(5-cyclopropyl-1H-pyrazol-3-yl)-2-(6-(1-propioloyl-2,5-dihydro-1H-pyrrol-3-yl)pyridin-3-yl)acetamide] | 0.0088 µM |  |  | 12 nM |  |  |  |  |  |  |  |  | 
7 | C#CC(=O)N1CCC=C(c2ccc(CC(=O)Nc3cc(C4CC4)[nH]n3)cn2)C1 [Compound 58, N-(5-cyclopropyl-1H-pyrazol-3-yl)-2-(1′-propioloyl-1′,2′,5′,6′-tetrahydro-[2,3′-bipyridin]-5-yl)acetamide] | 0.0097 µM |  | 84 nM | 49 nM |  |  |  |  |  |  |  |  | 
8 | C[C@H](C(=O)Nc1cc(C2CC2)[nH]n1)c1ccc(C2=CCN(C(=O)/C=C/CN(C)C)CC2)cc1 [Compound 15, (S,E)-N-(5-cyclopropyl-1H-pyrazol-3-yl)-2-(4-(1-(4-(dimethylamino)but-2-enoyl)-1,2,3,6-tetrahydropyridin-4-yl)phenyl)propanamide] | 0.204 µM |  | 18.8 nM | 235 nM | 33.03 | 2.64 | 621 nM |  | 8.175 | 204.4 nM | > 8 fold | 1671 nM | 
9 | C=CC(=O)N1CC=C(c2ccc(CC(=O)Nc3cc(C4CC4)[nH]n3)cn2)C1 [Compound 53, 2-(6-(1-acryloyl-2,5-dihydro-1H-pyrrol-3-yl)pyridin-3-yl)-N-(5-cyclopropyl-1H-pyrazol-3-yl)acetamide] | 0.014 µM |  | 0.9 nM | 10 nM | 8655.55 | 779 | 7790 nM |  |  |  |  |  | 
10 | C=CC(=O)N1CCC=C(c2ccc([C@H](C)C(=O)Nc3cc(C4CC4)[nH]n3)cc2)C1 [Compound 34, (S)-2-(4-(1-acryloyl-1,2,5,6-tetrahydropyridin-3-yl)phenyl)-N-(5-cyclopropyl-1H-pyrazol-3-yl)propanamide] | 0.050 µM | < 25 nM | 4.3 nM | 189 nM |  |  |  |  |  |  |  |  | 
11 | C=CC(=O)N1CC=C(c2ccc(C(C)C(=O)Nc3cc(C4CC4)[nH]n3)cn2)C1 (centres unmarked) [Compound 46, 2-(6-(1-acryloyl-2,5-dihydro-1H-pyrrol-3-yl)pyridin-3-yl)-N-(5-cyclopropyl-1H-pyrazol-3-yl)propanamide] | 0.003 µM |  | 6.9 nM | 32 nM |  |  |  |  |  |  |  |  | 
12 | CC#CC(=O)N1CCC=C(c2ccc(C(C)C(=O)Nc3cc(C4CC4)[nH]n3)cn2)C1 (centres unmarked) [Compound 52, 2-(1′-(but-2-ynoyl)-1′,2′,5′,6′-tetrahydro-[2,3′-bipyridin]-5-yl)-N-(5-cyclopropyl-1H-pyrazol-3-yl)propanamide] | 0.179 µM |  | 19 nM | 227 nM | 115.26 | 9.64 | 2190 nM |  |  |  |  |  | 
13 | C#CC(=O)N1CC=C(c2ccc(C(C)C(=O)Nc3cc(C4CC4)[nH]n3)cn2)CC1 (centres unmarked) [Compound 50, N-(5-cyclopropyl-1H-pyrazol-3-yl)-2-(1′-propioloyl-1′,2′,3′,6′-tetrahydro-[2,4′-bipyridin]-5-yl)propanamide] |  |  | 7 nM |  | 1.71 |  |  | 12 nM |  |  |  |  | 0.038 µM
14 | C=CC(=O)N1CCC(c2ccc([C@H](C)C(=O)Nc3cc(C4CC4)[nH]n3)cc2)CC1 [Compound 12, (S)-2-(4-(1-acryloylpiperidin-4-yl)phenyl)-N-(5-cyclopropyl-1H-pyrazol-3-yl)propanamide] | 0.080 µM |  | 7 nM | 151 nM | 404.28 | 18.74 | 2830 nM |  |  |  |  |  | 
15 | C=CC(=O)NC1CCC(c2ccc(C(C)C(=O)Nc3cc(C4CC4)n[nH]3)cc2)CC1 (single isomer, unassigned) [Compound 10, N-(4-(4-(1-((5-cyclopropyl-1H-pyrazol-3-yl)amino)-1-oxopropan-2-yl)phenyl)cyclohexyl)acrylamide] |  | < 25 nM | 18 nM | 740 nM |  |  | 5490 nM |  |  |  |  |  | 

— patent US10894786B2, “Substituted pyrazole derivatives as selective CDK12/13 inhibitors” (Aurigene Discovery Technologies Limited, priority 2018, dated 2021)
